Drawing on BindingDB's records for doi:10.7270/Q26112HR (n/a, 1997), this text covers Ki for one molecule.

This test addresses D(3) dopamine receptor (Homo sapiens, UniProt P35462). Nature of the test: Ability to displace [125I]-sulpiride from human Dopamine receptor D3, expressed in CHO cells.

D(3) dopamine receptor, sequence (P35462 as listed by the source): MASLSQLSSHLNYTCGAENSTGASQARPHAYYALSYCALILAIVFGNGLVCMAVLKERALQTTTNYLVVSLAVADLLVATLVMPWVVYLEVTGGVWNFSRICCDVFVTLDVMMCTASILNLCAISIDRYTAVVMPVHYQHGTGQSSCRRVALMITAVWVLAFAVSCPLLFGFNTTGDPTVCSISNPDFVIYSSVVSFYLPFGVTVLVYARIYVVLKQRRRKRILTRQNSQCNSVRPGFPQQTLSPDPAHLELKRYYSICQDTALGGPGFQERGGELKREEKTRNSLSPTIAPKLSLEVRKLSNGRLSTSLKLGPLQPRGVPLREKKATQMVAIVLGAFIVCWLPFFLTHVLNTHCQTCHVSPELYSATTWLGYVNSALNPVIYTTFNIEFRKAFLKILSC

On to `CCS(=O)(=O)c1ccc(OC)c(-c2ccc(CN3CCCCCC3c3ccccc3)[nH]2)c1` (stereo unspecified), for which the Ki (commonly a dissociation constant, usually derived from enzyme kinetics or from competition with a known ligand) was 1.3 nM.
